Calls of active or inactive are those of the source. How the calls were made is not given here.

The target in the first experiment is Regulator of G-protein signaling 16 (Homo sapiens) (UniProt O15492). Description: small molecules altering RGS16 binding to Galphao – biochemical, bead-based flow cytometry, multiplex, dose response (AID 1888).
Chain of Regulator of G-protein signaling 16 (Homo sapiens) (O15492 whole entry, looked up): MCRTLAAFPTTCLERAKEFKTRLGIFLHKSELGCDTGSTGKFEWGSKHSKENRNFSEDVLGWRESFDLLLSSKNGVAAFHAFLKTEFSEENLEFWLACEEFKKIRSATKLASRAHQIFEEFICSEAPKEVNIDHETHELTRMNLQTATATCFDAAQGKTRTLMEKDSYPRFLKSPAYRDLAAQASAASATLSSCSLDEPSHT
Conditions: not given
For orientation: A flow cytometer gives signals particle by particle.
In the case of `NS(=O)(=O)c1ccc(N/N=C/c2ccc(O)c(O)c2O)c([N+](=O)[O-])c1`, the EC50 was 1.66 µM.
Consider `CC(C)Sc1nc2ccc(N3C(=O)C4CCCCC4C3=O)cc2s1` (configuration not stated), for which the EC50 was > 30 µM (inactive).
Still for that read-out and setting: the value for `O=C1CCCC2=C1C(c1cccs1)n1ncnc1N2` (configuration not stated) was > 30 µM (inactive).
The same measure, in the same setting: the value for `CN(C)[C@@H]1C(=O)C(C(=O)NCN2CCCC2)=C(O)[C@@]2(O)C(=O)C3=C(O)c4c(O)cccc4[C@@](C)(O)C3CC12` (some centres not stated) was 7.31 µM; that for `CCOC(=O)N=Nc1c(O)n(C)c2ccccc12` was > 30 µM (inactive).
The same measure, in the same setting: the value for `O=c1[nH]c(=S)n(Cc2ccco2)c(O)c1C=NCc1cccs1` was > 30 µM (inactive); that for `COc1ccc(Br)cc1/C=N/Nc1cccc(C(=O)O)c1` was > 30 µM (inactive).
Regarding `CCOC(=O)C1=C(C)NC(C)=C(C(=O)OCCNC(=O)c2cccnc2)C1c1cccc([N+](=O)[O-])c1` (configuration not stated), the EC50 is > 30 µM (inactive).
As for `CCOC(=O)/C(C(=O)Nc1ccccc1Cl)=C1/NC(C)(C)Cc2ccccc21`, the EC50 entry is “inactive”.

The experiment is the same for the next values; noted with them: measured here: Ki for RGS16-Galphao binding.
The molecule `O=C(Cc1csc(N2CCOCC2)n1)N/N=C/c1ccc(O)c(O)c1O` came in with an inhibitory constant (Ki) of 9.08 µM.
Still for that read-out and setting: in the case of `O=c1c2ccccc2sn1-c1cc(S(=O)(=O)N2CCOCC2)ccc1N1CCOCC1` it was 0.56 µM; in that of `CCCNC(=O)Cn1sc2nc(C)cc(C)c2c1=O`, 1.42 µM; in that of `CCN1/C(=C/C(C)=C/c2sc3ccccc3[n+]2CC)Sc2ccccc21`, 7.85 µM.
The molecule `CCNc1ccc2noc3c2c1C(=O)c1ccccc1-3` registered an inhibitory constant (Ki) of 23.7 µM.
As for `COc1ccc(OC)c(CCNC(=O)Cn2sc3nc(C)cc(C)c3c2=O)c1`, the Ki came out at 1.43 µM.
Same read-out and setting: in the case of `O=C(NCCCN1CCOCC1)c1sc2cc([N+](=O)[O-])ccc2c1Cl` it was 0.77 µM; in that of `CN(C)S(=O)(=O)c1cccc(-n2sc3ccccc3c2=O)c1`, 1.24 µM; in that of `Cc1ccccc1-n1sc2cc(F)ccc2c1=O`, 13 µM.
On the same count and under the same terms, the value for `CCN1/C(=C/C=C/C=C/c2sc3ccccc3[n+]2CC)Sc2ccccc21` was 5.41 µM.
On the same count and under the same terms, the value for `CCC(=O)NC1=C(Cl)C(=O)C(NC(=O)CC)=C(Cl)C1=O` was 0.68 µM; that for `O=[N+]([O-])c1ccc(Sc2cccc[n+]2[O-])c2nonc12` was 1.07 µM; that for `CN(C)c1ncc(C2=C(Cl)C(=O)C(N3CCCC3)=C(Cl)C2=O)s1` was 4.05 µM.
Consider `Cc1ccccc1-n1c(-c2ccncc2)n[nH]c1=S`, for which the inhibitory constant (Ki) came to 6.29 µM.
Same read-out and setting: in the case of `CCOc1ccccc1-c1c2cc(O)c(=O)cc-2oc2cc(O)c(O)cc12` it was 11.3 µM; in that of `NS(=O)(=O)c1ccc(N/N=C/c2ccc(O)c(O)c2O)c([N+](=O)[O-])c1`, 1.35 µM; in that of `Cc1ccc(-n2sc3ccccc3c2=O)cc1S(=O)(=O)N1CCCCC1`, 1.62 µM.
The same measure, in the same setting: the value for `O=C(O[C@@H]1OC2COC(=O)c3cc(O)c(O)c(O)c3-c3c(cc(O)c(O)c3O)C(=O)O[C@@H]([C@H]1O)[C@@H]2O)c1cc(O)c(O)c(O)c1` was 5.42 µM; that for `Cc1[nH]n(-c2ccccc2)c(=S)c1C=Nc1cccc([N+](=O)[O-])c1` was 1.29 µM; that for `CC(=O)OCCCNc1cc(Sc2nc3ccccc3s2)c2nonc2c1[N+](=O)[O-]` was 8.45 µM.
The same measure, in the same setting: in the case of `CN1CCN(C2=C(Cl)C(=O)C(c3cnc(N4CCCCC4)s3)=C(Cl)C2=O)CC1` it was 0.15 µM; in that of `CC(NC(=O)c1sc2cc([N+](=O)[O-])ccc2c1Cl)C(C)(C)C` (configuration not stated), 2 µM.
Turning to `CC1(C)OC(=O)C(=Cc2ccc(-c3ccc(S(N)(=O)=O)cc3)o2)C(=O)O1`, the Ki turned out to be 9.64 µM.
For `CCOC(=O)C1CCCN(C(=O)Cn2sc3nc(C)cc(C)c3c2=O)C1` (configuration not stated), the Ki is 1.53 µM.
Still for that read-out and setting: the value for `CCC(=O)NC(c1ccc(C)cc1)c1cc([N+](=O)[O-])c2cccnc2c1O` (configuration not stated) was 9.46 µM.
Still for that read-out and setting: the value for `Cc1cc(C)c2c(=O)n(CC(=O)Nc3cccc(F)c3)sc2n1` was 1.39 µM; that for `Cc1cccc(N2CCN(C(=O)Cn3sc4nc(C)cc(C)c4c3=O)CC2C)c1` (configuration not stated) was 1.05 µM; that for `Nc1c(C(=O)NCC2CCCO2)sc2nc3c(c(-c4ccco4)c12)CC/C3=C\c1ccco1` (configuration not stated) was 2.21 µM.
Same read-out and setting: the value for `CCOC(=O)c1sc(NC(=O)CSc2nnc(Cc3ccccc3)o2)c(C#N)c1C` was 10.9 µM; that for `COC(=O)CCC(=O)Nc1sc(C)c(C)c1C(N)=O` was 5.32 µM.
As to `COc1ccc(C2=CC(=O)C=CC2=O)cc1`, the Ki worked out at 3 µM.
In the case of `O=C(OCC1O[C@@H](OC(=O)c2cc(O)c(O)c(O)c2)[C@@H](OC(=O)c2cc(O)c(O)c(O)c2)[C@@H](OC(=O)c2cc(O)c(O)c(O)c2)[C@@H]1OC(=O)c1cc(O)c(O)c(O)c1)c1cc(O)c(O)c(O)c1` (some centres not stated), the Ki stood at 4.68 µM.
Still for that read-out and setting: in the case of `Cc1[nH]n(-c2ccccc2)c(=S)c1C=NCCCN=Cc1c(C)[nH]n(-c2ccccc2)c1=S` it was 7.13 µM; in that of `CN(C)[C@@H]1C(=O)C(C(=O)NCN2CCCC2)=C(O)[C@@]2(O)C(=O)C3=C(O)c4c(O)cccc4[C@@](C)(O)C3CC12` (some centres not stated), 5.93 µM; in that of `COCCCNC(=O)c1ccc2c3c(onc13)-c1ccccc1C2=O`, 4.61 µM.
Regarding `O=C1CCC(=O)N(O)CCCCCNC(=O)CCC(=O)N(O)CCCCCNC(=O)CCC(=O)N(O)CCCCCN1`, the Ki amounted to 1.82 µM.
The molecule `O=c1c2ccccc2sn1-c1cc(S(=O)(=O)N2CCOCC2)ccc1N1CCCC1` displayed an inhibitory constant (Ki) of 1.83 µM.
The same measure, in the same setting: in the case of `O=c1c2ccccc2sn1-c1ccc(S(=O)(=O)N2CCCC2)cc1` it was 1.94 µM; in that of `Cc1cc(C)c2c(=O)n(CC(=O)Nc3ccc(Cl)cc3)sc2n1`, 1.42 µM; in that of `Cc1cc(Cl)ccc1N=c1ssnc1Cl`, 7.19 µM.
Molecule `CCN(CC)S(=O)(=O)c1cccc(C(=O)N/N=C/c2ccc(O)c(O)c2O)c1` showed an inhibition constant (Ki) of 4.14 µM.
For the molecule `C/C(=N/NC(=O)c1cc(O)c(O)c(O)c1)c1ccc([N+](=O)[O-])cc1`, the inhibitory constant (Ki) was 15.8 µM.
Regarding `O=c1c2ccccc2sn1-c1ccccc1`, the Ki came to 1.37 µM.
Consider `O=C(O)C[C@@H]1C(=O)O[C@@H]2C(COC(=O)c3cc(O)c(O)c(O)c3)O[C@@H](OC(=O)c3cc(O)c(O)c(O)c3)[C@@H](OC(=O)c3cc(O)c(O)c4c3[C@H]1[C@H](O)C(=O)O4)[C@H]2OC(=O)c1cc(O)c(O)c(O)c1` (some centres not stated), for which the inhibition constant Ki is 1.36 µM.
The same measure, in the same setting: in the case of `O=C(COc1ccccc1C(=O)N/N=C\c1ccc(O)c(O)c1)N/N=C/c1ccc(O)c(O)c1` it was 3.24 µM.
`O=C1OCC2OC(O)C(O)C(O)C2OC(=O)c2cc(O)c(O)c(O)c2-c2c(O)c(O)c3oc(=O)c4c(c(O)c(O)c5oc(=O)c2c3c54)-c2c1cc(O)c(O)c2O` (configuration not stated) returned a Ki of 13.4 µM.
The same measure, in the same setting: the value for `Cc1ccc(NC(=O)Cn2sc3nc(C)cc(C)c3c2=O)c(Cl)c1` was 0.71 µM; that for `CC(=O)N1CC[n+]2c(-c3ccc([N+](=O)[O-])cc3)csc21` was 11 µM; that for `CC(=O)N(O)CCCCCNC(=O)CCC(=O)N(O)CCCCCNC(=O)CCC(=O)N(O)CCCCCN` was 1.5 µM.
Still for that read-out and setting: the value for `CN=c1scc(C)n1/N=C/c1ccc(O)c(O)c1O` was 7.14 µM; that for `CCN=c1scc(C)n1/N=C/c1ccc(O)c(O)c1O` was 15.1 µM.
On the same count and under the same terms, in the case of `O=C1C(Cl)=C(N2CCCCC2)C(=O)C(Cl)=C1c1cnc(N2CCCCC2)s1` it was 1.34 µM.
As for `NS(=O)(=O)c1ccc(CNC(=O)/C=C/c2ccco2)cc1`, the Ki was found to be 6.22 µM.

One may read the EC50 as the concentration at which the effect is half-maximal. Broadly, the Ki is a dissociation constant, usually derived from enzyme kinetics or from competition with a known ligand. A lower Ki goes with tighter binding.

For the origin of these results see PubChem BioAssay AID1888 (NMMLSC, 2009).
